These results are taken from patent publication US9518981B2, “Modified nucleic acid binding cyanine dyes for the detection of reactive oxygen species” (LIFE TECHNOLOGIES CORPORATION, priority 2012, dated 2016).

Series [1] has as its system Human osteosarcoma (U2-OS) cells. Description: Detection of TBHP- or menadione-induced ROS by fluorescence microscopy. It counts as cell-based. The settings on record: 200 μM TBHP 2 hrs or 100 μM menadione 1 hr, 5 μM probe for last 30 min, washed 3× PBS. As for the experimental part:
Human osteosarcoma (U2-OS) cells were plated on MatTek 30 mm dishes at a density of 200,000 cells/dish and incubated at 37° C. The cells were then treated with or without 200 μM tert-butyl hydroperoxide (TBHP, 2 hrs at 37° C.) or 100 μM menadione (1 hr at 37° C.). The cells were stained with 5 μM Compound 1 for the last 30 min of the drug incubation. The cells were washed 3× with phosphate buffered saline (PBS) and imaged on a Zeiss Axiovert inverted microscope using a 40× objective.

In series [2] the test system is Jurkat cells (T-cell leukemia, human). Description: Detection of ROS with and without a post-staining wash step, flow cytometry. Format: cell-based. How it is done: Jurkat cells (T-cell leukemia, human) were treated with phosphate buffered saline (control; FIG. 8, panel A) or 200 μM tert-butyl-hydroperoxide (TBHP; FIG. 8, panel B) for one hour at 37° C., 5% CO2 prior to incubation with 500 nM Compound 1. Cell samples were directly analyzed on a Becton Dickinson LSRII flow cytometer equipped with a 488 nm laser line and a 525/50 bandpass filter for collection of fluorescence emission of Compound 1. Histogram overlays show cells analyzed immediately following 30 minutes incubation with Compound 1 (FIG. 8) compared to samples analyzed following three-3 mL wash steps (FIG. 8). […] The signal to noise ratio (or fold change in TBHP-treated cells as compared to control cells) in the no-wash samples was similar to the signal to noise ratio in the samples that were washed three times, 9.1 and 10.4, respectively, for the no-wash and the washed sample.

Series [3] has the same test system. Description: Detection of ROS in complete media vs. protein-containing buffer, flow cytometry. It counts as cell-based. The note with it: 500 nM probe. As for the experimental part:
Jurkat cells (T-cell leukemia, human) were resuspended in complete medium (RPMI 1640 medium, GIBCO (Life Technologies, Carlsbad, Calif.), supplemented with 10% Fetal Bovine Serum, FBS) or phosphate buffered saline supplemented with 1% bovine serum albumin (BSA). Cells in both complete medium (FIG. 9, panel A) and buffered saline+1% BSA (FIG. 9, panel B) were treated with diluents control, phosphate buffered saline alone (FIG. 9, control) or 400 μM tert-butyl-hydroperoxide (FIG. 9, TBHP) for 30 minutes at 37° C., 5% CO2 prior to staining with 500 nM Compound 1. Cell samples were analyzed on a BD LSRII flow cytometer equipped with a 488 nm laser line and a 525/50 bandpass filter for collection of fluorescence emission of Compound 1. The median fluorescent intensity (MFI) of Compound 1 fluorescence in control cells (FIG. 9, panel A) and the MFI of Compound 1 fluorescence in TBHP-treated cells (FIG. 9, panel B) stained in complete media (FIG. 9, panel A) were increased compared to samples stained in protein-containing buffer (FIG. 9, panel B). As a consequence, the signal to noise ratio (or fold change in TBHP-treated cells as compared to control cells) in the samples stained in complete media (FIG. 9, panel A) is greater (13.6) than the signal to noise ratio in the samples stained in protein-containing buffer (9.6).

The test system of series [4] is Jurkat cells. Description: Detection of TBHP-induced ROS by flow cytometry, with or without NAC. Format: cell-based, human. The settings on record: 500 nM probe. As for the experimental part: Jurkat cells were treated with phosphate buffered saline (FIG. 7, control), 200 μM tert-butyl-hydroperoxide (FIG. 7, TBHP), or 200 μM TBHP and 1 mM N-acetyl-L-cysteine (FIG. 7, TBHP+NAC), for one hour at 37° C., 5% CO2 prior to incubation with 500 nM Compound 1. Cell samples were analyzed using a Becton Dickinson LSRII flow cytometer equipped with a 488 nm laser line and a 525/50 bandpass filter for collection of fluorescence emission of Compound 1. TBHP is a membrane-permeant pro-oxidant used extensively in a model of oxidative stress in different systems. Reduction in the oxidative stress response induced by TBHP has been attributed to the ability of the antioxidant, NAC, to replenish intracellular glutathione levels. This reduces levels of reactive oxygen species.
Background: A flow cytometer gives signals particle by particle.

For series [5], the system named is Human aortic smooth muscle (HASM) cells. Briefly: Detection of angiotensin-II-induced oxidative stress by fluorescence microscopy. Format: cell-based. The settings on record: 500 ng/ml angiotensin-II 4 hrs, 5 μM probe for last 30 min. As for the experimental part: Human aortic smooth muscle (HASM) cells were plated on MatTek 30 mm dishes at a density of 150,000 cells/dish and incubated at 37° C. The cells were then treated with or without 500 ng/ml angiotensin-II for 4 hrs. The cells were stained with 5 μM Compound 1 for last 30 min of the drug incubation. The cells were washed 3× with PBS and imaged on a Zeiss Axiovert inverted microscope using a 40× objective. An increase in the signal of Compound 1 as observed for all compounds tested, indicating an increase in oxidative stress in these cell models (see, FIG. 3).

The subject of series [6] is Jurkat cells. Briefly: Detection of oxidative stress using flow cytometry (menadione, TBHP). It counts as cell-based, human. The note with it: menadione 25-100 μM or TBHP 50-200 μM 60 min, 5 μM probe, 488 nm laser, 530/30 filter. As for the experimental part:
Jurkat cells were diluted in RPMI with 10% FBS to a density of 10^6 cells/ml. Control cells were treated with vehicle control or DMSO, and sample cells were treated with different concentrations of menadione (25 μM, 50 μM, or 100 μM), or were treated with different concentrations of Tert-butyl hydroperoxide (TBHP) (50 μM, 100 μM, or 200 μM) for 60 min. Compound 1 was added to a final concentration of 5 μM for the last 30 minutes of drug incubation. The samples were acquired and analyzed on an Attune® Acoustic Focusing Cytometer. Compound 1 fluorescence was detected using the 488 nm laser and a 530/30 nm bandpass emission filter. A total of 20,000 events were collected using the standard 200 μl/minute collection rate. An increase in Compound 1 fluorescence intensity is observed in menadione and TBHP-treated cells compared to their controls (see, FIG. 6).

The test system of series [7] is Human osteosarcoma (U2-OS) cells. Briefly: Resistance to formaldehyde fixation and detergent permeabilization. It counts as cell-based. The settings on record: 100 μM menadione 1 hr, 5 μM probe, 4% formaldehyde, 0.1% Triton X-100. How it is done:
Human osteosarcoma (U2-OS) cells were plated on a 96-well plate at a density of 7,500 cells/well and incubated overnight at 37° C. The cells were treated with or without 100 μM menadione for 1 hr at 37° C. The cells were then stained with 5 μM Compound 1 and Hoechst 33342 by adding the probes to complete media and incubating at 37° C. for 30 min. The cells were washed with PBS and imaged on a Thermo Fisher Cellomics ArrayScan® VTI, either live or 4% formaldehyde fixed or formaldehyde-fixed and permeabilized with 0.1% Triton X-100.

For `CCCCC1=C/C(=C/C2Sc3ccccc3N2C)c2ccccc2N1c1ccccc1` (stereo not shown) [Compound 1, (Z)-2-((2-butyl-1-phenylquinolin-4(1H)-ylidene)methyl)-3-methyl-2,3-dihydrobenzo[d]thiazole], the “signal of Compound 1 (fluorescence) in treated vs untreated cells” value in series [1] and in series [5] was “increase” each time. The “median fluorescence intensity (MFI), no-wash cells compared to washed cells” value in series [2] (500 nM probe 30 minutes, no wash vs three 3 mL wash steps) is given as “not significantly different”. In addition, in series [2] (200 μM TBHP 1 hour, 500 nM probe, no wash), the “signal to noise ratio (fold change in TBHP-treated cells as compared to control cells), no-wash sample” value amounted to 9.1. Also, the “signal to noise ratio (fold change in TBHP-treated cells as compared to control cells), washed sample” value in series [2] (200 μM TBHP 1 hour, 500 nM probe, washed three times) is reported as 10.4. Also, in series [3] (400 μM TBHP 30 minutes, PBS + 1% BSA), the “signal to noise ratio (fold change in TBHP-treated cells as compared to control cells), protein-containing buffer” value was 9.6. The “signal to noise ratio (fold change in TBHP-treated cells as compared to control cells), complete media” value in series [3] (400 μM TBHP 30 minutes, RPMI 1640 + 10% FBS) was 13.6. Moreover, the “median fluorescent intensity (MFI) in complete media compared to protein-containing buffer” value in series [3] (control and 400 μM TBHP-treated cells) was “increased”. Further, the “Mean Fluorescence Intensity (MFI), TBHP-treated cells” value in the series on Jurkat cells [4] (200 μM TBHP 1 hour) is recorded as 3944. Further, in the series on Jurkat cells [4] (200 μM TBHP and 1 mM N-acetyl-L-cysteine 1 hour), the “Mean Fluorescence Intensity (MFI), TBHP + NAC treated cells” value is on record as 2768. In the series with Jurkat cells [4] (phosphate buffered saline control), the “Mean Fluorescence Intensity (MFI), control cells” value was determined as 365. Further, the “fluorescence intensity in menadione and TBHP-treated cells compared to controls” value in the series with Jurkat cells [6] is given as “increase”. Also, the “signal retention after formaldehyde fixation and detergent permeabilization” value in series [7] was “retained well”.
